# Experimental data: ChEMBL document CHEMBL4602729, “O-Alkyl Hydroxamates Display Potent and Selective Antileishmanial Activity” (J Med Chem, 2020)
# Active and inactive are the calls of the source. The rule behind the calls is not given here.
# How the values were obtained:
# [1] = tested on: Leishmania infantum; test: Antileishmanial activity against Leishmania infantum MON-1 promastigotes assessed as reduction in parasite viability at 100 uM measured after 48 hrs by MTT assay; type: functional, organism-based
# [2] = Cytotoxicity against mouse L929 cells assessed as reduction in cell viability measured after 72 hrs by tryphan blue assay; type: cell-based; settings: L929 cells
# [3] = Cytotoxicity against Swiss mouse BMDM assessed as reduction in cell viability measured after 72 hrs by tryphan blue assay; type: cell-based; settings: Swiss, BMDM
# [4] = tested on: Leishmania infantum; test: Antileishmanial activity against Leishmania infantum MON-1 intracellular amastigotes infected in Swiss mouse BMDM assessed as reduction in parasite load at 14.3 uM measured after 48 hrs using gold nanoparticle incorporated compound by Giemsa staining based optical microscopic analysis relative to control; type: functional; design: scale not given: the % may be the effect or the level left
# [5] = tested on: BMDM; test: Cytotoxicity against Swiss mouse BMDM assessed as reduction in cell viability at 3.21 uM measured after 72 hrs using PLGA nanoparticle incorporated compound by tryphan blue assay; type: cell-based
# [6] = Toxicity in BALB/c mouse infected with Leishmania infantum MON-1 promastigotes assessed as enzymatic alteration in plasma at 10 to 25 mg/kg, ip administered daily for 14 days starting from 28 days post infection using gold nanoparticle incorporated compound; type: organism-based; settings: in vivo
# [7] = Toxicity in BALB/c mouse infected with Leishmania infantum MON-1 promastigotes assessed as swelling of liver at 10 to 25 mg/kg, ip administered daily for 14 days starting from 28 days post infection using gold nanoparticle incorporated compound; type: organism-based; settings: in vivo
# [8] = Toxicity in BALB/c mouse infected with Leishmania infantum MON-1 promastigotes assessed as biochemical alteration in serum at 10 to 25 mg/kg, ip administered daily for 14 days starting from 28 days post infection using PLGA nanoparticle incorporated compound; type: organism-based; settings: in vivo
# [9] = Toxicity in BALB/c mouse infected with Leishmania infantum MON-1 promastigotes assessed as enzymatic alteration in serum at 10 to 25 mg/kg, ip administered daily for 14 days starting from 28 days post infection using PLGA nanoparticle incorporated compound; type: organism-based; settings: in vivo
# [10] = Toxicity in BALB/c mouse infected with Leishmania infantum MON-1 promastigotes assessed as swelling of liver at 10 to 25 mg/kg, ip administered daily for 14 days starting from 28 days post infection using PLGA nanoparticle incorporated compound; type: organism-based; settings: in vivo
# [11] = Toxicity in BALB/c mouse infected with Leishmania infantum MON-1 promastigotes assessed as swelling of spleen at 10 to 25 mg/kg, ip administered daily for 14 days starting from 28 days post infection using PLGA nanoparticle incorporated compound; type: organism-based; settings: in vivo
# [12] = Toxicity in BALB/c mouse infected with Leishmania infantum MON-1 promastigotes assessed as histological changes at 10 to 25 mg/kg, ip administered daily for 14 days starting from 28 days post infection using PLGA nanoparticle incorporated compound; type: organism-based; settings: in vivo
# [13] = tested on: Leishmania infantum; test: (§1) Antileishmanial activity against Leishmania infantum MON-1 promastigotes infected in BALB/c mouse assessed as reduction in spleen parasite load at 10 mg/kg, ip administered daily for 14 days starting from 28 days post infection using gold nanoparticle incorporated compound measured post last dose by Taqman qRT-PCR analysis relative to control; type: functional; design: scale not given: the % may be the effect or the level left
# [14] = tested on: Leishmania infantum; test: as §1, with “25” for “10”, “PLGA” for “gold”; type: functional; design: scale not given: the % may be the effect or the level left
# [15] = tested on: Leishmania infantum; test: as §1, with “dose in presence of meglumine antimoniate” for “dose”; type: functional; design: scale not given: the % may be the effect or the level left
# [16] = tested on: Leishmania infantum; test: as §1, with “liver” for “spleen”, “dose in presence of meglumine antimoniate” for “dose”; type: functional; design: scale not given: the % may be the effect or the level left
# [17] = Drug metabolism in human liver microsomes assessed as vorinostat formation at 1 uM measured up to 60 mins by LC-MS/MS analysis; type: ADME, Microsome; settings: 1 h
# [18] = Drug metabolism in human liver microsomes assessed as compound 13 formation at 1 uM measured after 30 mins by LC-MS/MS analysis; type: ADME, Microsome; settings: 0.5 h
# [19] = Drug metabolism in human liver microsomes assessed as N-oxidation of amide moiety by measuring compound 14 formation at 1 uM measured up to 60 mins by LC-MS/MS analysis; type: ADME, Microsome; settings: 1 h
# [20] = molecular target: Cytochrome P450 3A4 (Homo sapiens, UniProt P08684); test: Inhibition of CYP3A4 in human liver microsomes using testosterone as substrate measured after 15 mins by LC-MS/MS analysis; type: ADME
# [21] = Mutagenicity in Salmonella typhimurium TA98 at 10 to 75 uM measured after 5 days in absence of S9 fraction by Ames test; type: toxicity; settings: salmonella enterica subsp. enterica serovar typhimurium, s9, 120 h
# [22] = Mutagenicity in Salmonella typhimurium TA100 at 10 to 75 uM measured after 5 days in presence of S9 fraction by Ames test; type: toxicity, subcellular; settings: salmonella enterica subsp. enterica serovar typhimurium, s9, 120 h
# Chain of Cytochrome P450 3A4 (P08684 whole entry): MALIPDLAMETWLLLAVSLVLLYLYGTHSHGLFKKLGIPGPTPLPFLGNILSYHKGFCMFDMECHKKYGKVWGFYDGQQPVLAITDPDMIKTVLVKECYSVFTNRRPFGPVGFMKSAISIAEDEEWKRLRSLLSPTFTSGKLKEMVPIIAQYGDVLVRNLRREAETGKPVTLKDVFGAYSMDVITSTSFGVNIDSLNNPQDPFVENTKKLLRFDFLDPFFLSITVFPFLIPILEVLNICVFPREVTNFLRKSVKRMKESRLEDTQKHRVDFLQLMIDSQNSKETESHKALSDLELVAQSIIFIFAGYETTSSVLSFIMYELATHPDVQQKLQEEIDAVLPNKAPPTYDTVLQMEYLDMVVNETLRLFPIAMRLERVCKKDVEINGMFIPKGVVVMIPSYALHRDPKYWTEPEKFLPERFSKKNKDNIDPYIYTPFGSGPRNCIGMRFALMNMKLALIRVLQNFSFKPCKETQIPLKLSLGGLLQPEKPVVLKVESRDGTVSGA
compound,measurement,setting,value
O=C(CCCCCCC(=O)Nc1ccccc1)NOC(c1ccccc1)(c1ccccc1)c1ccccc1,Activity,[1],inactive
same,CC50 at 72 h,[2],> 100 µM
same,CC50 at 72 h,[3],> 100 µM
same,Activity,[4],71%
same,Activity,[5],Non-Toxic
same,Activity,[6],Non-Toxic
same,Activity,[7],Non-Toxic
same,Activity,[8],Non-Toxic
same,Activity,[9],Non-Toxic
same,Activity,[10],Non-Toxic
same,Activity,[11],Non-Toxic
same,Activity,[12],Non-Toxic
same,Activity,[13],86%
same,Activity,[14],70%
same,Activity,[15],92%
same,Activity,[16],100%
same,Drug metabolism,[17],Metabolite_Notdetected
same,Drug metabolism,[18],Metabolite_Detected
same,Drug metabolism,[19],Metabolite_Detected
same,IC50,[20],5.56 µM
same,Activity,[21],Non-Toxic
same,Activity,[22],Non-Toxic
